According to ChEMBL document CHEMBL1201862, “PubChem BioAssay data set” (2004):
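Step 1: Grow cells in 96-well plates. Step 2: Expose to compound for 48 hours at 5 concentrations. Step 3: Interpolate endpoints linearly; if unreached, use highest concentration. Here, GI50 denotes the concentration required for 50% inhibition of growth.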 The source made the active and inactive calls. Cut-off read from the data, not from the text of the source: active = GI50 up to about 1.1 µM and inactive = higher.

Columns and labels:
Experiment in all cases: DTP human tumour cell line panel, 48 h
SK-OV-3 = tested on: SK-OV-3
OVCAR-4 = tested on: OVCAR-4
NCI-H522 = tested on: NCI-H522
SK-MEL-28 = tested on: SK-MEL-28
SN12C = tested on: SN12C
HL-60 = tested on: HL-60
CAKI-1 = tested on: CAKI-1
A549 = tested on: A549
M19-MEL = tested on: M19-MEL
NCI-H226 = tested on: NCI-H226
UO-31 = tested on: UO-31
U-251 = tested on: U-251
SF-268 = tested on: SF-268
COLO 205 = tested on: COLO 205
K562 = tested on: K562
UACC-257 = tested on: UACC-257
SK-MEL-2 = tested on: SK-MEL-2
DMS-273 = tested on: DMS-273
MOLT-4 = tested on: MOLT-4
RXF 631 = tested on: RXF 631
HOP-18 = tested on: HOP-18
DLD-1 = tested on: DLD-1
RXF 393 = tested on: RXF 393
SW-620 = tested on: SW-620
DMS-114 = tested on: DMS-114
SF-539 = tested on: SF-539
RPMI-8226 = tested on: RPMI-8226
ACHN = tested on: ACHN
UACC-62 = tested on: UACC-62
SNB-19 = tested on: SNB-19
TK-10 = tested on: TK-10
KM12 = tested on: KM12
KM-20L2 = tested on: KM-20L2
SNB-78 = tested on: SNB-78
SK-MEL-5 = tested on: SK-MEL-5
HOP-62 = tested on: HOP-62
M14 = tested on: M14
HCT-116 = tested on: HCT-116
HCC 2998 = tested on: HCC 2998
NCI-H460 = tested on: NCI-H460
Malme-3M = tested on: Malme-3M
SR = tested on: SR
EKVX = tested on: EKVX
A498 = tested on: A498
LXFL 529 = tested on: LXFL 529
786-0 = tested on: 786-0
IGROV-1 = tested on: IGROV-1
HCT-15 = tested on: HCT-15
OVCAR-3 = tested on: OVCAR-3
OVCAR-8 = tested on: OVCAR-8
SNB-75 = tested on: SNB-75

Nc1ccn([C@@H]2C[C@H](CO)[C@@H](O)[C@H]2O)c(=O)n1
GI50 (SK-OV-3): > 57.7 µM (inactive)
GI50 (OVCAR-4): > 57.7 µM (inactive)
GI50 (NCI-H522): > 57.7 µM (inactive)
GI50 (SK-MEL-28): > 57.7 µM (inactive)
GI50 (SN12C): > 57.7 µM (inactive)
GI50 (HL-60): > 57.7 µM (inactive)
GI50 (CAKI-1): > 57.7 µM (inactive)
GI50 (A549): > 57.7 µM (inactive)
GI50 (M19-MEL): > 57.7 µM (inactive)
GI50 (NCI-H226): > 57.7 µM (inactive)
GI50 (UO-31): > 57.7 µM (inactive)
GI50 (U-251): > 57.7 µM (inactive)
GI50 (SF-268): > 57.7 µM (inactive)
GI50 (COLO 205): > 57.7 µM (inactive)
GI50 (K562): > 57.7 µM (inactive)
GI50 (UACC-257): > 57.7 µM (inactive)
GI50 (SK-MEL-2): > 57.7 µM (inactive)
GI50 (DMS-273): > 57.7 µM (inactive)
GI50 (MOLT-4): > 57.7 µM (inactive)
GI50 (RXF 631): > 57.7 µM (inactive)
GI50 (HOP-18): > 57.7 µM (inactive)
GI50 (DLD-1): > 57.7 µM (inactive)
GI50 (RXF 393): > 57.7 µM (inactive)
GI50 (SW-620): > 57.7 µM (inactive)
GI50 (DMS-114): > 57.7 µM (inactive)
GI50 (SF-539): > 57.7 µM (inactive)
GI50 (RPMI-8226): > 57.7 µM (inactive)
GI50 (ACHN): > 57.7 µM (inactive)
GI50 (UACC-62): > 57.7 µM (inactive)
GI50 (SNB-19): > 57.7 µM (inactive)
GI50 (TK-10): > 57.7 µM (inactive)
GI50 (KM12): > 57.7 µM (inactive)
GI50 (KM-20L2): > 57.7 µM (inactive)
GI50 (SNB-78): > 57.7 µM (inactive)
GI50 (SK-MEL-5): > 57.7 µM (inactive)
GI50 (HOP-62): > 57.7 µM (inactive)
GI50 (M14): > 57.7 µM (inactive)
GI50 (HCT-116): > 57.7 µM (inactive)
GI50 (HCC 2998): > 57.7 µM (inactive)
GI50 (NCI-H460): > 57.7 µM (inactive)
GI50 (Malme-3M): > 57.7 µM (inactive)
GI50 (SR): > 57.7 µM (inactive)
GI50 (EKVX): > 57.7 µM (inactive)
GI50 (A498): > 57.7 µM (inactive)
GI50 (LXFL 529): > 57.7 µM (inactive)
GI50 (786-0): > 57.7 µM (inactive)
GI50 (IGROV-1): > 57.7 µM (inactive)
GI50 (HCT-15): > 57.7 µM
GI50 (OVCAR-3): > 57.7 µM (inactive)
GI50 (OVCAR-8): > 57.7 µM (inactive)
GI50 (SNB-75): > 57.7 µM (inactive)
